Data reported in patent US9738634B2, “Heterocyclic amide compound and herbicide” (SYNGENTA PARTICIPATIONS AG, priority 2013, dated 2017).

Key:
Format in all cases: in vivo
[1] = system: black-grass; experiment: Test Example 3: weedkilling efficacy through soil treatment; H: black-grass; conditions: treatment dosage 315 g/ha
How it was run: (§1)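 Crop and weed responses were judged three weeks after a uniform surface spray of the water-diluted emulsion at the given g/ha rate. Seeds sat beneath about 1.5 cm of sterilized diluvial soil, and boxes stood in a greenhouse at 25 to 30° C.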

[2] = system: Indian mallow; experiment: Test Example 3: weedkilling efficacy through soil treatment; K: Indian mallow; conditions: treatment dosage 315 g/ha
How it was run: as §1

[3] = system: oval-leafed pondweed; experiment: Test Example 2: weedkilling efficacy, growth period weed treatment in the submerged state; C: oval-leafed pondweed; conditions: treatment dosage 252 g/ha
How it was run: (§2)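 Seedlings at 1-2 leaves in 4 cm-deep submerged alluvial soil received emulsion formulations on the water surface, dosed per hectare; effects were judged 3 weeks on.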

[4] = system: corn; experiment: Test Example 3: soil treatment, effect on crop; c: corn; conditions: treatment dosage 315 g/ha
How it was run: as §1

[5] = system: soybean; experiment: Test Example 3: soil treatment, effect on crop; d: soybean; conditions: treatment dosage 315 g/ha
How it was run: as §1

[6] = system: corn; experiment: Test Example 4: foliar treatment, effect on crop; c: corn; conditions: treatment dosage 315 g/ha
How it was run: (§3)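 Seeds are spot-sown into sterilized diluvial soil and covered with about 1.5 cm of soil. After 14 days' greenhouse growth at 25 to 30° C, plants are sprayed on stems and leaves with diluted emulsion at the stated g/ha rate, then scored at 3 weeks.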

[7] = system: birds-eye speedwell; experiment: Test Example 4: weedkilling efficacy by foliar treatment; p: birds-eye speedwell; conditions: treatment dosage 315 g/ha
How it was run: as §3

[8] = system: crabgrass; experiment: Test Example 3: weedkilling efficacy through soil treatment; D: crabgrass; conditions: treatment dosage 315 g/ha
How it was run: as §1

[9] = system: barnyard grass; experiment: Test Example 2: weedkilling efficacy, growth period weed treatment in the submerged state; A: barnyard grass; conditions: treatment dosage 252 g/ha
How it was run: as §2

[10] = system: bulrush; experiment: Test Example 1: weedkilling efficacy, preemergent weed treatment in the submerged state; B: bulrush; conditions: treatment dosage 252 g/ha
How it was run: (§4)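 Submerged pre-emergence treatment, water-surface application of compound emulsion at g/ha dosages; 4 cm flooded alluvial soil, weeds sown and 2.5-leaf rice transplanted same day. Rated after 3 weeks, greenhouse.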

[11] = system: barnyard grass; experiment: Test Example 1: weedkilling efficacy, preemergent weed treatment in the submerged state; A: barnyard grass; conditions: treatment dosage 252 g/ha
How it was run: as §4

[12] = system: fig-leafed goosefoot; experiment: Test Example 4: weedkilling efficacy by foliar treatment; M: fig-leafed goosefoot; conditions: treatment dosage 315 g/ha
How it was run: as §3

[13] = system: crabgrass; experiment: Test Example 4: weedkilling efficacy by foliar treatment; D: crabgrass; conditions: treatment dosage 315 g/ha
How it was run: as §3

[14] = system: directly sown rice; experiment: Test Example 4: foliar treatment, effect on crop; b: directly sown rice; conditions: treatment dosage 315 g/ha
How it was run: as §3

[15] = system: transplanted rice; experiment: Test Example 1: preemergent weed treatment in the submerged state, effect on crop; a: transplanted rice; conditions: treatment dosage 252 g/ha
How it was run: as §4

[16] = system: bulrush; experiment: Test Example 2: weedkilling efficacy, growth period weed treatment in the submerged state; B: bulrush; conditions: treatment dosage 252 g/ha
How it was run: as §2

[17] = system: redroot pigweed; experiment: Test Example 3: weedkilling efficacy through soil treatment; L: redroot pigweed; conditions: treatment dosage 315 g/ha
How it was run: as §1

[18] = system: black-grass; experiment: Test Example 4: weedkilling efficacy by foliar treatment; H: black-grass; conditions: treatment dosage 315 g/ha
How it was run: as §3

[19] = system: beet; experiment: Test Example 4: foliar treatment, effect on crop; f: beet; conditions: treatment dosage 315 g/ha
How it was run: as §3

[20] = system: chickweed; experiment: Test Example 4: weedkilling efficacy by foliar treatment; N: chickweed; conditions: treatment dosage 315 g/ha
How it was run: as §3

[21] = system: green foxtail; experiment: Test Example 4: weedkilling efficacy by foliar treatment; E: green foxtail; conditions: treatment dosage 315 g/ha
How it was run: as §3

[22] = system: redroot pigweed; experiment: Test Example 4: weedkilling efficacy by foliar treatment; L: redroot pigweed; conditions: treatment dosage 315 g/ha
How it was run: as §3

[23] = system: fig-leafed goosefoot; experiment: Test Example 3: weedkilling efficacy through soil treatment; M: fig-leafed goosefoot; conditions: treatment dosage 315 g/ha
How it was run: as §1

[24] = system: soybean; experiment: Test Example 4: foliar treatment, effect on crop; d: soybean; conditions: treatment dosage 315 g/ha
How it was run: as §3

[25] = system: Italian ryegrass; experiment: Test Example 4: weedkilling efficacy by foliar treatment; I: Italian ryegrass; conditions: treatment dosage 315 g/ha
How it was run: as §3

[26] = system: wheat; experiment: Test Example 4: foliar treatment, effect on crop; e: wheat; conditions: treatment dosage 315 g/ha
How it was run: as §3

[27] = system: Italian ryegrass; experiment: Test Example 3: weedkilling efficacy through soil treatment; I: Italian ryegrass; conditions: treatment dosage 315 g/ha
How it was run: as §1

[28] = system: green foxtail; experiment: Test Example 3: weedkilling efficacy through soil treatment; E: green foxtail; conditions: treatment dosage 315 g/ha
How it was run: as §1

[29] = system: oval-leafed pondweed; experiment: Test Example 1: weedkilling efficacy, preemergent weed treatment in the submerged state; C: oval-leafed pondweed; conditions: treatment dosage 252 g/ha
How it was run: as §4

[30] = system: directly sown rice; experiment: Test Example 3: soil treatment, effect on crop; b: directly sown rice; conditions: treatment dosage 315 g/ha
How it was run: as §1

[31] = system: Indian mallow; experiment: Test Example 4: weedkilling efficacy by foliar treatment; K: Indian mallow; conditions: treatment dosage 315 g/ha
How it was run: as §3

[32] = system: chickweed; experiment: Test Example 3: weedkilling efficacy through soil treatment; N: chickweed; conditions: treatment dosage 315 g/ha
How it was run: as §1

[33] = system: catchweed; experiment: Test Example 4: weedkilling efficacy by foliar treatment; O: catchweed; conditions: treatment dosage 315 g/ha
How it was run: as §3

[34] = system: beet; experiment: Test Example 3: soil treatment, effect on crop; f: beet; conditions: treatment dosage 315 g/ha
How it was run: as §1

[35] = system: wheat; experiment: Test Example 3: soil treatment, effect on crop; e: wheat; conditions: treatment dosage 315 g/ha
How it was run: as §1

[36] = system: birds-eye speedwell; experiment: Test Example 3: weedkilling efficacy through soil treatment; p: birds-eye speedwell; conditions: treatment dosage 315 g/ha
How it was run: as §1

Compound	H (black-grass) weedkilling efficacy grade [1]	K (Indian mallow) weedkilling efficacy grade [2]	C (oval-leafed pondweed) weedkilling efficacy grade [3]	c (corn) effect on crop grade [4]	d (soybean) effect on crop grade [5]	c (corn) effect on crop grade [6]	P (birds-eye speedwell) weedkilling efficacy grade [7]	D (crabgrass) weedkilling efficacy grade [8]	A (barnyard grass) weedkilling efficacy grade [9]	B (bulrush) weedkilling efficacy grade [10]	A (barnyard grass) weedkilling efficacy grade [11]	M (fig-leafed goosefoot) weedkilling efficacy grade [12]	D (crabgrass) weedkilling efficacy grade [13]	b (directly sown rice) effect on crop grade [14]	a (transplanted rice) effect on crop grade [15]	B (bulrush) weedkilling efficacy grade [16]	L (redroot pigweed) weedkilling efficacy grade [17]	H (black-grass) weedkilling efficacy grade [18]	f (beet) effect on crop grade [19]	N (chickweed) weedkilling efficacy grade [20]	further results
CC1=C(c2ccc(Cl)s2)C(=O)N(C(C)(C)C(=O)Nc2cccc(Cl)n2)CO1 [B-2-02]	5 (weed kill ratio 90% or more, (practically complete withering))	3 (weed kill ratio 40% or more, less than 70%)	5 (weed kill ratio 90% or more, (practically complete withering))	0 (weed kill ratio 5% or less (practically no effect))	0 (weed kill ratio 5% or less (practically no effect))	0 (weed kill ratio 5% or less (practically no effect))	1 (weed kill ratio 5% or more, less than 20%)	5 (weed kill ratio 90% or more, (practically complete withering))	5 (weed kill ratio 90% or more, (practically complete withering))	5 (weed kill ratio 90% or more, (practically complete withering))	5 (weed kill ratio 90% or more, (practically complete withering))	3 (weed kill ratio 40% or more, less than 70%)	4 (weed kill ratio 70% or more, less than 90%)	4 (weed kill ratio 70% or more, less than 90%)	0 (weed kill ratio 5% or less (practically no effect))	5 (weed kill ratio 90% or more, (practically complete withering))	3 (weed kill ratio 40% or more, less than 70%)	4 (weed kill ratio 70% or more, less than 90%)	3 (weed kill ratio 40% or more, less than 70%)	0 (weed kill ratio 5% or less (practically no effect))	E (green foxtail) weedkilling efficacy grade [21]: 3 (weed kill ratio 40% or more, less than 70%); L (redroot pigweed) weedkilling efficacy grade [22]: 4 (weed kill ratio 70% or more, less than 90%); M (fig-leafed goosefoot) weedkilling efficacy grade [23]: 0 (weed kill ratio 5% or less (practically no effect)); d (soybean) effect on crop grade [24]: 0 (weed kill ratio 5% or less (practically no effect)); I (Italian ryegrass) weedkilling efficacy grade [25]: 3 (weed kill ratio 40% or more, less than 70%); e (wheat) effect on crop grade [26]: 0 (weed kill ratio 5% or less (practically no effect)); I (Italian ryegrass) weedkilling efficacy grade [27]: 5 (weed kill ratio 90% or more, (practically complete withering)); E (green foxtail) weedkilling efficacy grade [28]: 3 (weed kill ratio 40% or more, less than 70%); C (oval-leafed pondweed) weedkilling efficacy grade [29]: 5 (weed kill ratio 90% or more, (practically complete withering)); b (directly sown rice) effect on crop grade [30]: 2 (weed kill ratio 20% or more, less than 40%); K (Indian mallow) weedkilling efficacy grade [31]: 0 (weed kill ratio 5% or less (practically no effect)); N (chickweed) weedkilling efficacy grade [32]: 3 (weed kill ratio 40% or more, less than 70%); O (catchweed) weedkilling efficacy grade [33]: 0 (weed kill ratio 5% or less (practically no effect)); f (beet) effect on crop grade [34]: 0 (weed kill ratio 5% or less (practically no effect)); e (wheat) effect on crop grade [35]: 3 (weed kill ratio 40% or more, less than 70%); P (birds-eye speedwell) weedkilling efficacy grade [36]: 2 (weed kill ratio 20% or more, less than 40%)
CC1=C(c2cccnc2F)C(=O)N(C(C)(C)C(=O)Nc2cccc(Cl)n2)CO1 [B-2-08]	5 (weed kill ratio 90% or more, (practically complete withering))	4 (weed kill ratio 70% or more, less than 90%)	5 (weed kill ratio 90% or more, (practically complete withering))	0 (weed kill ratio 5% or less (practically no effect))	0 (weed kill ratio 5% or less (practically no effect))	0 (weed kill ratio 5% or less (practically no effect))	4 (weed kill ratio 70% or more, less than 90%)	5 (weed kill ratio 90% or more, (practically complete withering))	5 (weed kill ratio 90% or more, (practically complete withering))	5 (weed kill ratio 90% or more, (practically complete withering))	5 (weed kill ratio 90% or more, (practically complete withering))	4 (weed kill ratio 70% or more, less than 90%)	5 (weed kill ratio 90% or more, (practically complete withering))	4 (weed kill ratio 70% or more, less than 90%)	0 (weed kill ratio 5% or less (practically no effect))	5 (weed kill ratio 90% or more, (practically complete withering))	4 (weed kill ratio 70% or more, less than 90%)	5 (weed kill ratio 90% or more, (practically complete withering))	5 (weed kill ratio 90% or more, (practically complete withering))	4 (weed kill ratio 70% or more, less than 90%)	E (green foxtail) weedkilling efficacy grade [21]: 5 (weed kill ratio 90% or more, (practically complete withering)); L (redroot pigweed) weedkilling efficacy grade [22]: 4 (weed kill ratio 70% or more, less than 90%); M (fig-leafed goosefoot) weedkilling efficacy grade [23]: 4 (weed kill ratio 70% or more, less than 90%); d (soybean) effect on crop grade [24]: 4 (weed kill ratio 70% or more, less than 90%); I (Italian ryegrass) weedkilling efficacy grade [25]: 5 (weed kill ratio 90% or more, (practically complete withering)); e (wheat) effect on crop grade [26]: 2 (weed kill ratio 20% or more, less than 40%); I (Italian ryegrass) weedkilling efficacy grade [27]: 5 (weed kill ratio 90% or more, (practically complete withering)); E (green foxtail) weedkilling efficacy grade [28]: 5 (weed kill ratio 90% or more, (practically complete withering)); C (oval-leafed pondweed) weedkilling efficacy grade [29]: 5 (weed kill ratio 90% or more, (practically complete withering)); b (directly sown rice) effect on crop grade [30]: 5 (weed kill ratio 90% or more, (practically complete withering)); K (Indian mallow) weedkilling efficacy grade [31]: 4 (weed kill ratio 70% or more, less than 90%); N (chickweed) weedkilling efficacy grade [32]: 3 (weed kill ratio 40% or more, less than 70%); O (catchweed) weedkilling efficacy grade [33]: 3 (weed kill ratio 40% or more, less than 70%); f (beet) effect on crop grade [34]: 1 (weed kill ratio 5% or more, less than 20%); e (wheat) effect on crop grade [35]: 3 (weed kill ratio 40% or more, less than 70%); P (birds-eye speedwell) weedkilling efficacy grade [36]: 4 (weed kill ratio 70% or more, less than 90%)
